In data set [1] the test system is active TGF-β1. To be noted: injection; cited from earlier work.
The test system of data set [2] is ACLT mice.
Description: Mice. We purchased C57BL/6J (wild type) mice from Charles River. We anesthetized two months old male mice with ketamine and xylazine and then transected the anterior cruciate ligament surgically to induce mechanical instability associated osteoarthritis on the right knee. Sham operations were done on independent mice. For the time-course experiment, operated animals were euthanized at 0, 14, 30, 60 and 90 days post-surgery, n=8-12. For the dosage screening experiment, 2-month-old sham and ACLT-operated mice were assigned into 6 groups, n=10 per group. Beginning three days after surgery, we injected either different doses (0.1, 0.5, 1, 2.5, and 5 mg kg^−1) of TβRI inhibitor (SB505124, Sigma Aldrich) or the equivalent volume of vehicle (DMSO+PBS) intra-peritoneally daily for 30 days. Mice were euthanized 30 and 60 days post-surgery.
Histochemistry, Immunohistochemistry and Histomorphometry. At the time of sacrifice, we resected and fixed the knee joints in 10% buffered formalin for 48 hours, decalcified in 10% ethylenediamine tetraacetic acid (pH 7.4) for 21 days and embedded in paraffin or O.C.T. compound (Sakura Finetek). Four-μm-thick sagittal oriented sections of the knee joint medial compartment were processed for hematoxylin and eosin and sanfranin O-Fast green staining. Tartrate resistant acid phosphatase staining was performed using standard protocol (Sigma-Aldrich). Immunostaining was performed using standard protocol. We incubated sections with primary antibodies to mouse Nestin (Ayes Labs, Inc., 1:300), Osterix (Abeam, 1:600), Osteocalcin (Takara bio 1:200), p-Smad2/3 (Santa Cruz Biotechnology Inc., 1:50), p-Smad1/5 (Abcam, 1:50), ALK1 (Santa Cruz Biotechnology Inc., 1:50), ALK5 (Abeam, 1:50), CD31 (Abeam, 1:100), MMP13 (Abeam, 1:40), and Collagen X (Abeam, (1:80) overnight at 4° C. For immunohistochemical staining, a horse radish peroxidase-streptavidin detection system (Dako) was subsequently used to detect the immunoactivity followed by counterstaining with hematoxylin (Dako). For immunofluorescent staining, secondary antibodies conjugated with fluorescence were added and slides were incubated at room temperature for 1 hour while avoiding light. We microphotographed sections to perform histomorphometric measurements on the entire area of the tibia subchondral bone (Olympus DP71). Quantitative histomorphometric analysis was conducted in a blinded fashion with OsteoMeasureXP Software (OsteoMetrics, Inc). To label mineralization deposition, sequential subcutaneous injections of 1% calcein (Sigma, 15 mg kg^−1) and 3% xylenol orange (Sigma, 90 mg kg^−1) in 2% sodium bicarbonate solution was performed. Calcein and xylenol orange were injected 10 days and 2 days respectively before the mice were sacrificed. We counted the number of positively stained cells in whole tibia subchondral bone area per specimen, in five sequential sections per mouse in each group. We calculated OARSI scores as previously described.
Flow cytometry. We divided C57/B16 mice into 3 groups (n=10 per group): sham operation with vehicle treatment, ACLT with vehicle treatment and ACLT with TβRI inhibitor (SB505124) treatment. One month after surgery, we sacrificed mice and pooled tibia subchondral bone marrow cells from each group together. Red blood cells were lysed by commercial ACK lysis buffer (Quality Biological, Inc.). After centrifugation, the cell pellet was resuspended and fixed in 4% paraformaldehyde. We then washed cells with 0.1% bovine serum albumin (BSA) in PBS and counted them. 1×10^6 cells per milliliter were permeabilized in 0.1% Triton X-100 prior to blocking in 3% FACS buffer (PBS, 3% FBS, 0.1% NaN3 sodium azide) for 30 min on ice. We incubated the cells with Alexa Fluor 647-conjugated Nestin antibody (BD Pharmingen), anti-Osterix (Abeam, 1:400) or isotype control for 1 hour at 37° C. in dark room, and then washed twice with 0.1% BSA in PBS.
In data set [3] the test system is Dunkin Hartley guinea pig spontaneous osteoarthritis. Put plainly: Dunkin Hartley guinea pig spontaneous osteoarthritis, MRI of knee joints. The settings on record: injected for 3 months. The class given is in vivo. The source says: (FIG. 16A) MRI scanning of knee joints of the guinea pig with different dose of TβRI inhibitor or vehicle treatment for 3 months. Red arrows pointing the bone marrow lesions in the subchondral bone of distal femur (upper row) or tibiae plateau (lower row). (FIG. 16B) Quantitative analysis of the bone marrow lesion intensity.

Data set [4] deals with 9-month-old ACLT mice. Kind of data set: ACLT or sham surgery in 9 month old mice treated with TβRI inhibitor. The data set is classed as in vivo, mouse. To be noted: for articular cartilage degeneration / subchondral bone structure / architecture: 1 mg/kg daily for 1 month. The procedure:
(FIG. 12A) Safranin O staining of tibia articular cartilage and subchondral bone of mice sacrificed at 0, 14, 30, and 60 days post sham or ACLT surgery and treated with either vehicle or TβRI inhibitor (SB505124-1 mg/kg) daily beginning 3 days post-surgery for 1 month. For those mice analyzed at earlier time points, the mice were treated until sacrificed. (FIG. 12B) 3D μCT images of subchondral bone of knee joints. The sham operated mice maintained articular cartilage and subchondral bone structure throughout the duration of the experiment. […] (FIG. 12C) OARSI score based on the histology analysis. Quantitative analysis of structural parameters by μCT analysis: (FIG. 12D) thickness of subchondral bone plate (SBP) and (FIG. 12E) trabecular pattern factor (Tb. Pf). […] Ve-Sham: vehicle treated in sham operated; In-Sham: TβRI inhibitor treat in sham operated; Ve-ACLT: vehicle treated in ACLT operated; In-ACLT: TβRI inhibitor treated in ACLT operated mice.
Histochemistry, Immunohistochemistry and Histomorphometry. […] Immunostaining was performed using standard protocol. […] We calculated OARSI scores as previously described.
Micro-Computed Tomography (μCT). […] Th: trabecular thickness, Tb. Sp: trabecular separation, SMI, Conn. Dn: connectivity density, and Tb.Pf: trabecular pattern factor.

For data set [5], the system named is Nestin-Cre™ER::Rosa26-LacZ^fl/fl mice. Kind of data set: β-gal and osteocalcin co-staining in subchondral bone of Nestin-CreER::Rosa26-LacZfl/fl ACLT mice. The data set is classed as in vivo, mouse. From the text:
We purchased Nestin-Cre™ER and (ROSA)26Sortm1Sor/J mice from the Jackson Laboratory. Floxed type II TGF-β receptor (TβRII^fl/fl) mice were obtained from Dr. Moses' lab. Nestin-Cre™ER mice were crossed with TβRII^fl/fl mice. The offspring were intercrossed to generate the following offspring: nestin-Cre™ER::TβRII^fl/fl, in which Cre was fused with a mutated estrogen receptor that could be activated by Tamoxifen. We determined the genotype of transgenic mice by PCR analyses of genomic DNA isolated from mouse tails. Genotyping for the Cre transgene was performed by PCR with the primers Cre 5′ (5′-CAAATAGCCCTGGCAGAT-3′) and Cre 3′ (5′-[…]-3′). The loxP TβRII allele was identified with the primerslox1F (5′-[…]-3′) and lox1R (5′-[…]-3′). We generated Nestin-Cre™ER::Rosa26-LacZ^fl/fl mice by crossing nestin-Cre™ER mice with mice homozygous with a loxP-flanked DNA STOP sequence preventing expression of the downstream lacZ gene. The offspring were then intercrossed to generate the following genotype: Nestin-Cre™ER::Rosa26-LacZ^fl/fl. We performed sham or ACLT operations on two month-old, male WT, Nestin-Cre™ER::TβRII^fl/fl and Nestin-Cre™ER::Rosa26-lacZ^fl/fl male mice. […]
Histochemistry, Immunohistochemistry and Histomorphometry. […] We calculated OARSI scores as previously described.

Data set [6] has as its system MSCs. Kind of data set: Western blot of Smad phosphorylation in cultured MSCs treated with recombinant hTGF-β1. The class given is cell-based, mouse. The procedure:
Cell Culture. We obtained green fluorescent protein (GFP)-labeled mouse adult MSCs from the Texas A&M Health Science Center College of Medicine Institute (College Station). We maintained cells (Passage 3-5) Iscove's modified Dulbecco's medium (Invitrogen) supplemented with 10% fetal calf serum (Atlanta Biologicals), 10% horse serum (Thermo Scientific), and (% penicillin-streptomycin (Mediatech). We cultured MSCs in 6-well plates at a density of 1.8×10^5 cells per well, then starved them for 6 h followed by TGF-β1 (R&D Systems) and TβRI inhibitor (SB-505124) (Sigma-Aldrich) treatment as indicated.
ELISA and Western Blot, We determined the concentration of active TGF-β1 in the conditioned media by the ELISA Development kit (R&D Systems) according to the manufacturer's instructions. Western blot analyses were conducted on the protein of lysates from in vitro cultured MSCs. The cell lysates were centrifuged and the supernatants were separated by SDS-PAGE and blotted on polyvinylidene fluoride membrane (Bio-Rad Laboratories). Following incubation in specific antibodies, we detected proteins using an enhanced chemiluminescence kit (Amersham Biosciences). […]
(In general: In western blotting, separated proteins are transferred to a membrane and probed.)

The mark [7] stands for this setting: 9 month old ACLT mice, listed as WI inhibitor, 1 mg/kg.

Where two headings read alike, the source gives them in different places.

The values below come from patent publication US10793625B2, “Compositions and methods for treating or preventing osteoarthritis” (THE JOHNS HOPKINS UNIVERSITY, priority 2012, dated 2020).

Turning to `Cc1cccc(-c2[nH]c(C(C)(C)C)nc2-c2ccc3c(c2)OCO3)n1` [TβRI inhibitor], the “uncoupled bone formation induced by high concentrations of active TGF-β1” value in data set [1] is “rescue uncoupled bone formation”. In addition, the “subchondral bone tissue volume (TV), μCT” value is reported as “normalization of subchondral bone TV” in data set [2] (1 mg kg^−1); “inhibited the increase in TV” in data set [2] (high doses 1, 2.5 and 5 mg/kg). The “thickness of subchondral bone plate (SBP), μCT” value in data set [2] (1 mg kg^−1) was “maintenance of the thickness of SBP”; in data set [4] (9 month old ACLT mice, 1 month post-surgery, compared to sham-operated controls), “remained normal”. For the same compound, the “trabecular pattern factor (Tb. Pf), μCT” value is “decrease in Tb. Pf” in data set [2] (1 mg kg^−1); “decreased Tb. Pf” in data set [2] (high doses 1, 2.5 and 5 mg/kg); “decreased the trabecular pattern factor” in data set [4] (9 month old ACLT mice, 1 and 2 months post ACLT, relative to ACLT-Vehicle). Further, the “degeneration of articular cartilage” value in data set [2] (0.1 and 0.5 mg/kg, 2 months after ACLT) is given as “nor prevent the degeneration of articular cartilage”. In addition, the “contrast signal in MRI perfusion analysis” value in data set [2] (1 month post ACLT) is on record as “the increase was prevented”. Besides, in data set [2] (2 weeks post-surgery), the “expression of ALK5 in subchondral bone” value is reported as “the increase was inhibited”. Further, the “pSmad2/3+ cells in subchondral bone” value in data set [2] (2 weeks post-surgery) is listed as “the increase was prevented”. Moreover, the “expression level of ALK1 in subchondral bone” value in data set [2] (2 weeks post-surgery, relative to sham) is given as “remained unchanged”. Moreover, the “number of pSmad1+ cells in subchondral bone” value in data set [2] (2 weeks post-surgery, relative to sham controls) is “remained relatively stable”. The subchondral bone structure result is listed as “could rescue the bone structure” in data set [2] (2.5 and 5 mg/kg daily i.p. for 30 days, ACLT mice); “improved subchondral bone structure” in data set [2] (higher concentrations, beginning at 1 mg kg^−1). Moreover, in data set [2] (14 and 30 days, immunostaining), the “co-localization of osterix+ osteoprogenitors and TRAP+ osteoclasts” value was “co-localization of osterix and TRAP was seen”. In data set [2] (30 days post-surgery, immunostaining), the “increase of nestin+ MSCs in subchondral bone marrow” value was “prevented”. Moreover, the “CD31+ endothelial progenitors in subchondral bone” value in data set [2] (ACLT mice) is listed as “reduced”. In addition, the “bone volume/tissue volume (BV/TV), μCT” value in data set [2] (all doses, 30 and 60 days post ACLT) is “did not change BV/TV”. Moreover, the “bone marrow lesion in tibial subchondral bone” value in data set [2] (micro-MRI, vs ACLT-vehicle treated mice) is “obviously smaller in size”. In addition, in data set [2] (one month post ACLT, vs vehicle), the “increased number of osterix+ osteoprogenitor clusters in bone marrow” value was “attenuated”. Further, the “gait analysis: disparity of maximum contact time (Maxcontactat %) of the two hind limbs” value in data set [2] (two months post-surgery, Catwalk system) is recorded as “rescued”. Also, the “OARSI score of articular cartilage” value in data set [2] (vs vehicle treated ACLT mice) is “protective effect”. Moreover, the “subchondral bone marrow lesions in knee joints” value in data set [3] was “significantly reduced”. The articular cartilage degeneration entry in data set [4] (9 month old ACLT mice, 1 mg/kg) is recorded as “attenuated the articular cartilage degeneration”; in data set [4] (setting [7]), “attenuated”. The “subchondral bone structure / architecture” value is “improved subchondral bone architecture” in data set [4] (9 month old ACLT mice, 1 mg/kg) and “improved” in data set [4] (setting [7]). Moreover, the “effect on articular cartilage” value in data set [4] (sham-operated 9 month old mice, 1 mg/kg) is “did not have significant effect on articular cartilage”. For the same compound, the “distribution of β-gal+ MSC lineage cells in subchondral bone” value in data set [5] is “primarily distributed on bone surface”.
For “TGF-β1: recombinant hTGF-β1 (R&D Systems) used to treat cultured MSCs”, the “dose giving maximal increase of phosphorylated Smad1/5/8” value in data set [6] was 5 ng/mL. Also, the “phosphorylation of Smad2/3 and Smad1/5/8” value in data set [6] (low concentrations) is “stimulated phosphorylation”.
